Values of other authors as cited in US20260053767A1, “Hepatoprotective Compositions And Methods” (Jemyll, Ltd., priority 2022, published 2026).

Conditions: reported: adipose tissue inflammation, insulin resistance, non-alcoholic fatty liver disease; cited from earlier work

## CCCCCCCCCCCC(=O)O [lauric acid]
  effects on the liver and other tissues: significant adverse effects on the liver and other tissues
